Experimental data taken from patent US7723119B2, “Method for determining solubility of a chemical compound” (Sirius Analytical Instruments Ltd., priority 2004, dated 2010).

Assay: solubility determination by Chasing Equilibrium pH-metric titration
Assay type: physicochemical
Source text: In the Dissolution stage, the test solution is titrated with base titrant. In the Seeking Precipitation and Additional Precipitation stages, the test solution is titrated with acid titrant.
After the final data point of the Additional Precipitation stage has been collected, the method moves on to the Chasing Equilibrium stage. Chasing Equilibrium for an acidic sample is based on the following principles:
The first points are collected while adding base titrant to a supersaturated test solution. The addition of titrant is controlled by a computer program. The slope decreases with each aliquot of base that is added. […] Another aliquot of base is added to confirm that the slope is negative. If the slope remains negative, another data point is taken after adding no titrant. […] By successively adding aliquots of base and acid, the slope can be forced to change direction. When the slope has changed direction several (e.g. five) times the Chasing Equilibrium stage of the procedure is deemed to be complete.
The concentration of unionised solute in solution is calculated for each point in FIG. 7, and plotted against slope (pH/min) as shown in FIG. 8. The points are then connected by a line in the same order that they appeared in FIG. 7. The points corresponding to where the line crosses the zero value of the slope (pH/min) axis are determined by interpolation. The concentration equivalent to these zero slope, crossing points is determined. The solubility is then obtainable as the mean concentration calculated from the several zero slope, crossing points.
For each point located on either side of a zero slope crossing, the amount of neutral sample in solution could be calculated in the following steps:
1. […]
4. The concentration of free positive ions (e.g. K^+) is determined from the amount of base titrant (e.g. KOH) plus any positive ions in the test compound if it was a salt: [K^+]=(vbcb+mszs+/wf)/vt • wherein: cb is the concentration of base titrant • ms is the sample weight of test compound • zs+ is the charge of any positive salt counter-ions • wf is the formula weight of the test compound. […]

- solubility thermodynamic (0.15 M KCl solution titrated with acid and base, saline or isotonic, thermodynamic from solid, straight line interpolation of points A and B to zero pH slope, 0.15M KCl solution, sample introduced as sodium salt, read-out: equilibrium solubility (concentration of unionised compound at zero pH slope)): ~0.732 µg/mL
- dissolved neutral test sample (point A, one side of zero-slope crossing, pH=5.64453, pH slope=2.87 E-05): 759 ng/mL
- dissolved neutral test sample (point B, other side of zero-slope crossing, pH=5.70437, pH slope=-3.5 E-06): 728 ng/mL
SMILES: O=C(O)Cc1ccccc1Nc1c(Cl)cccc1Cl [diclofenac]
